Assay results from patent publication US10975432B2, “Tagged multi-nucleotides useful for nucleic acid sequencing” (Roche Sequencing Solutions, Inc., priority 2016, dated 2021).

Assays:
[1] = test system: exonuclease deficient variant of the Pol6 polymerase; assay: Displacement assay of single-, double-, triple- and quadruple-nucleotide substrates (Example 3); format: biochemical
Text: The assay is a displacement assay using an exonuclease deficient variant of the Pol6 polymerase as described in Example 2, wherein polymerase activity is followed by fluorometrically monitoring the change in FRET between the Cy5 and BHQ labels as the polymerase incorporates the substrates in the DNA extension reaction.
Briefly, an assay solution containing the Pol6 polymerase, the 5′-Cy5-labelled displacement DNA template of SEQ ID NO: 124, and the 3′-BHQ-labelled quencher primer of SEQ ID NO: 124 in 75 mM potassium glutamate (“K-Glu”) is prepared in the absence of the substrate or Mg^2+ ion. A substrate solution is prepared containing either the multi-nucleotide compound to be assayed (i.e., “Y-Tag,” “W-Tag,” or “Q-Tag”), the non-tagged dT6P (“Hexa-PO4), or the tagged single nucleotide substrate, dA6P-dT30-C3 (“Full Tag”) of compound (3d). Also included in the substrate solution are the other three nucleotide-hexaphosphate (“dN6P”) substrates required for polymerase synthesis of a strand complementary to the DNA template (i.e., dA6P, dC6P, dG6P). This substrate solution is added to the polymerase solution. Assays are carried out for each of the test substrates at the following initial concentrations: 0.25 μM, 0.5 μM, 1.0 μM, 2.0 μM, 4.0 μM, and 8.0 μM. Additional K-Glu is added to bring the total K-Glu concentration in the mixture up to 300 mM. The polymerase reaction is then initiated by addition of MgCl2. Final concentrations in the assay reaction mixture are: 100 nM Pol6 enzyme, 50 nM Cy5 displacement DNA template, 40 μM each of other dN6P substrates, 300 mM K-Glu, 25 mM HEPES, 0.2 mM EDTA, 0.05% Triton X-100, 5 mM TCEP, 25 μg/mL BSA, 5 mM MgCl2, pH 7.5.

[2] = test system: α-HL-Pol6 nanopore-polymerase conjugate

Cc1cn([C@H]2C[C@H](O)[C@@H](COP(=O)(O)OP(=O)(O)OP(=O)(O)OP(=O)(O)OP(=O)(O)OP(=O)(O)O)O2)c(=O)[nH]c1=O [dT6P]
Rate (Bases/sec) ([1]; Initial Conc. Tag 0.25 μM): 0.57 Bases/sec | Rate (Bases/sec) ([1]; Initial Conc. Tag 0.5 μM): 2.87 Bases/sec | Rate (Bases/sec) ([1]; Initial Conc. Tag 1.0 μM): 3.48 Bases/sec | Rate (Bases/sec) ([1]; Initial Conc. Tag 2.0 μM): 3.89 Bases/sec | Rate (Bases/sec) ([1]; Initial Conc. Tag 4.0 μM): 4.48 Bases/sec | Rate (Bases/sec) ([1]; Initial Conc. Tag 8.0 μM): 4.24 Bases/sec

(dA6P)2-dT5-(BHEB)-dT14-C3: two dA6P linked via doubler-linker to tag SEQ ID NO: 109 (DNA TTTTTNTTTTTTTTTTTTTT; two dA6P via doubler linker, BHEB, C3 cap, chemistry not fully specified)
Blocking current level [2]: 0.88+/−0.03 Fraction of Open Current

(dC6P)2-dT20-C3: two dC6P linked via doubler-linker to tag SEQ ID NO: 105 (DNA tttttttttttttttttttt; two dC6P via doubler linker, C3 cap; (20)..(20) T-propanol)
Blocking current level [2]: 0.76+/−0.04 Fraction of Open Current

(dG6P)2-dT6-(Tmp)6-dT8-C3: two dG6P linked via doubler-linker to tag SEQ ID NO: 107 (DNA TTTTTTNNNNNNTTTTTTTT; two dG6P via doubler linker, Tmp, C3 cap; (7)..(12) thymidine methylphosphonate; (20)..(20) T-propanol)
Blocking current level [2]: 0.38+/−0.08 Fraction of Open Current

(dT6P)2-dT4-(N3CE-dT)3-dT13-C3: two dT6P linked via doubler-linker to tag SEQ ID NO: 106 (DNA TTTTNNNTTTTTTTTTTTTT; chemistry not fully specified)
Blocking current level [2]: 0.62+/−0.05 Fraction of Open Current
